Experiments:
[1] = test system: washed human platelet suspension; assay: Inhibition of collagen-induced platelet aggregation (aggregometer); format: cell-based; settings: washed human platelets, 2 min preincubation, collagen 4 μg/ml, read-out 6 min after induction
Method: Platelet shape change in washed platelets was monitored using an aggregometer and the decrease in light transmittance following addition of an agonist (Huzoor et al., 1993). For the purpose of this analysis, collagen was used as the agonist. Briefly, a washed human platelet suspension was incubated at 37° C. in a Lumi-Aggregometer (Chrono-Log Corporation) with stirring at 900 rpm, followed by the addition of dimethylsulfoxide (DMSO) as a control vehicle, or DMSO containing (S)G04 or (R)G04 (FIG. 1A). (S)G04 and (R)G04 were tested at concentrations of 1, 5, 10, 30 and 50 μM.
After incubating the samples with the respective compound for 2 minutes, platelet aggregation was induced by adding collagen ([…]) and the relative aggregation value was read out at 6 min after the induction. A dose response for each compound was derived.
In these experiments, a collagen concentration of 4 μg/ml was used. The IC50 values calculated for (R)G04 and (S)G04 are 40 μM and 4 μM, respectively.

[2] = Pharmacokinetic study of (S)G04 in mice, serum UPLC-MS/MS; format: in vivo; settings: IV injection of 10 and 50 μM in PAS buffer
Method: Standard (S)G04 was diluted from DMSO stock (50 mM) with PAS buffer into 10 and 50 μM, administered to mice via IV injection, and serum samples were collected at time points 1, 3, 10, 30 min, and stored at −80° C. before analysis. PK samples from mice serum (retro orbital bleed) were usually 20-100 μL.
A calibration curve in the range of 0-1 μM, i.e. 0, 0.01, 0.05, 0.1, 0.5, 1 μM, was prepared by spiking standard solution ([…] (S)G04 in PAS buffer) into blank mouse serum and then conducting serial dilution accordingly.
QC samples were prepared in the same way with final concentration of 0.05 and 0.5 μM.
Samples were prepared by carrying out the following steps. Add 20 μL of mouse serum (PK samples, calibrators and QCs), and 20 μL of internal standard in methanol, vortex for 30 secs. Add 100 μL of ice cold MeOH then vortex for 1 min. Let sit for 5 minutes before submitting to centrifuge for 10 minutes at 21,100×g (RCF) at 4° C. Take 100 μL of the supernatant and transfer to autosampler vial (max recovery, Waters). Put a cap on the vial, and load vials onto UPLC-MS autosampler for analysis. Because organic solvent evaporates relatively quickly at room temperature, samples in organic solvents should not be left at room temperature longer than 6 hr before injection. Set up the UPLC-MS/MS system: cleaning cone, in accordance with the manufacturer's Operation SOP/documents. […]

[3] = test system: cold-stored human platelets; assay: Human platelet recovery after xenotransfusion of cold-stored human platelets into NSG mice; format: in vivo, human platelets in NOD/SCID/gc-/- (NSG) mice; settings: 10 μM in PAS-3M, cold storage 1-6° C. for 7 or 14 days, followed 24 hours post-transfusion
Method: To assess (S)G04 and (R)G04 prevention of platelet activation in vivo, xenotransfusion was performed of long-term (day 7, FIG. 3 and day 14, FIG. 4) stored solutions by taking an aliquot (equivalent to 1×10^6 platelets) of CFSE-labeled cold-stored human platelets (Acrodose, pooled platelets from four ABO identical donors) that were transfused to conditioned NOD/SCID/gc−/− (NSG) mice and followed for 24 hours post-transfusion.
Four storage conditions were tested. In all storage conditions, the vehicle was the platelet additive solution PAS-3M (Grifols, Barcelona, Spain). The storage conditions varied as follows (1) room temperature storage in vehicle only (RT-Vehicle), (2) cold storage (1-6° C., average ˜2° C.) in vehicle only (Cold-Vehicle), (3) cold storage in vehicle with 10 μM (S)G04 (Cold-G04-S), (4) cold storage in vehicle with 75 μM (R)G04 (Cold-G04-R).
Data is presented as an average of a triplicate analysis. […] Data is presented as an average of a triplicate analysis.

[4] = test system: congenic murine platelets; assay: In vivo clot formation: tail bleeding time of aspirinated mice after platelet transfusion; settings: 10 μM, murine platelets stored cold (1-6° C.) 4 hours, 24 hours post-administration of platelets
Method: Next, the influence of G04 ((S)G04 and (R)G04) on in vivo clot formation was examined. Congenic murine platelets were stored in cold (1-6° C.) for 4 hours and then administered to mice 24 hours after administration of aspirin. Bleeding time was measured for aspirinated mice receiving no platelets, vehicle-only platelets stored at room temperature, vehicle-only cold-stored platelets, vehicle+(R)G04 (75 μM) cold-stored platelets, and vehicle+(S)G04 (10 μM) cold-stored platelets. The results were compared to control non-aspirinated mice (Basal).

Compound: N[C@@H](Cc1c[nH]c2ccccc12)C(=O)N/N=C/c1ccc2nccnc2c1 [(S)G04]
- IC50 [1]: 4 µM
- reduction of the injection concentration in 1 minute [2]: > 100 ×
- survival of cold-stored platelets (recovery and AUC) after xenotransfusion [3]: completely prevented the decreased survival
- bleeding time of aspirinated mice [4]: completely corrected the bleeding time
